Laboratory results taken from PubChem BioAssay AID1963849 (Molecular Pharmacology Branch, DTP, NCI, 2024).

Test system: 299254-011-R-J1-PDC complex spheroid viability
Assay: Anticancer human tumor 299254-011-R-J1-PDC patient-derived melanoma cell line growth inhibition [POLQ]
Conditions: for IC50: curve of first compound; for viability, T/C: stronger effect = lower value
Outline: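 Complex spheroid viability model combining PDC tumour cells with endothelial (HUVEC) and MSC stromal cells. Novobiocin, ART-558 or RP6685 were tested singly and in combination with standard and investigational anticancer drugs. Each was titrated in half-log steps from near clinical Cmax, or from 10 microM where Cmax was unknown.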

[1] = second compound 0.0316 µM, first compound 0.0316 µM
[2] = second compound 0.0316 µM, first compound 0.1 µM
[3] = second compound 0.0316 µM, first compound 0.316 µM
[4] = second compound 0.0316 µM, first compound 1 µM
[5] = second compound 0.0316 µM, first compound 3.16 µM
[6] = second compound 0.0316 µM, first compound 10 µM
[7] = second compound 0.1 µM, first compound 0.0316 µM
[8] = second compound 0.1 µM, first compound 0.1 µM
[9] = second compound 0.1 µM, first compound 0.316 µM
[10] = second compound 0.1 µM, first compound 1 µM
[11] = second compound 0.1 µM, first compound 3.16 µM
[12] = second compound 0.1 µM, first compound 10 µM
[13] = second compound 0.316 µM, first compound 0.0316 µM
[14] = second compound 0.316 µM, first compound 0.1 µM
[15] = second compound 0.316 µM, first compound 0.316 µM
[16] = second compound 0.316 µM, first compound 1 µM
[17] = second compound 0.316 µM, first compound 3.16 µM
[18] = second compound 0.316 µM, first compound 10 µM
[19] = second compound 1 µM, first compound 0.0316 µM
[20] = second compound 1 µM, first compound 0.1 µM
[21] = second compound 1 µM, first compound 0.316 µM
[22] = second compound 1 µM, first compound 1 µM
[23] = second compound 1 µM, first compound 3.16 µM
[24] = second compound 1 µM, first compound 10 µM
[25] = second compound 3.16 µM, first compound 0.0316 µM
[26] = second compound 3.16 µM, first compound 0.1 µM
[27] = second compound 3.16 µM, first compound 0.316 µM
[28] = second compound 3.16 µM, first compound 1 µM
[29] = second compound 3.16 µM, first compound 3.16 µM
[30] = second compound 3.16 µM, first compound 10 µM
[31] = second compound 10 µM, first compound 0.0316 µM
[32] = second compound 10 µM, first compound 0.1 µM
[33] = second compound 10 µM, first compound 0.316 µM
[34] = second compound 10 µM, first compound 1 µM
[35] = second compound 10 µM, first compound 3.16 µM
[36] = second compound 10 µM, first compound 10 µM
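Also: spheroids exposed to drugs for one week before measurement.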
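For viability, T/C in this document: percent viability relative to DMSO vehicle control taken as 100%.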

`C#Cc1c(F)ccc2cc(O)cc(-c3ncc4c(N5CC6CCC(C5)N6)nc(OCC56CCCN5CC(F)C6)nc4c3F)c12` (stereo unspecified) + Nc1ccc(C#CCN(C(=O)Cc2ncc(C(F)(F)F)cc2C(F)(F)F)c2ccc(F)cc2)nn1 gave an IC50 (second compound 0.0316 µM) of over 10 µM, an IC50 (second compound 0.1 µM) of over 10 µM and an IC50 (second compound 0.316 µM) of over 10 µM. For the same compound, the IC50 (second compound 1 µM) was over 10 µM, the IC50 (second compound 3.16 µM) was over 10 µM and the IC50 (second compound 10 µM) was over 10 µM. It also gave a viability, T/C [1] of 106%, a viability, T/C [2] of 108% and a viability, T/C [3] of 106%. The viability, T/C [4] was 112%, the viability, T/C [5] was 116% and the viability, T/C [6] was 82.1%. For the same compound, the viability, T/C [7] was 92.3%, the viability, T/C [8] was 109% and the viability, T/C [9] was 110%. The viability, T/C [10] was 104%, the viability, T/C [11] was 103% and the viability, T/C [12] was 90.2%. For the same compound, the viability, T/C [13] was 107%, the viability, T/C [14] was 103% and the viability, T/C [15] was 133%. For the same compound, the viability, T/C [16] was 104%, the viability, T/C [17] was 98% and the viability, T/C [18] was 92.4%. The viability, T/C [19] was 114%, the viability, T/C [20] was 102% and the viability, T/C [21] was 104%. The viability, T/C [22] was 136%, the viability, T/C [23] was 103% and the viability, T/C [24] was 103%. For the same compound, the viability, T/C [25] was 117%, the viability, T/C [26] was 118% and the viability, T/C [27] was 106%. It also gave a viability, T/C [28] of 128%, a viability, T/C [29] of 99.1% and a viability, T/C [30] of 86.6%. The viability, T/C [31] was 103%, the viability, T/C [32] was 89.5% and the viability, T/C [33] was 92.6%. The viability, T/C [34] was 128%, the viability, T/C [35] was 96.9% and the viability, T/C [36] was 68.6%.

`COc1cc2cc(C(=O)CCC(=O)O)sc2cc1OC` + Nc1ccc(C#CCN(C(=O)Cc2ncc(C(F)(F)F)cc2C(F)(F)F)c2ccc(F)cc2)nn1 was tested, and the IC50 (second compound 0.0316 µM) was over 10 µM, the IC50 (second compound 0.1 µM) was over 10 µM and the IC50 (second compound 0.316 µM) was over 10 µM. It also gave an IC50 (second compound 1 µM) of over 10 µM, an IC50 (second compound 3.16 µM) of over 10 µM and an IC50 (second compound 10 µM) of over 10 µM. The viability, T/C [1] was 99%, the viability, T/C [2] was 97.8% and the viability, T/C [3] was 85.9%. The viability, T/C [4] was 94%, the viability, T/C [5] was 111% and the viability, T/C [6] was 106%. The viability, T/C [7] was 96.9%, the viability, T/C [8] was 83.8% and the viability, T/C [9] was 82.3%. The viability, T/C [10] was 105%, the viability, T/C [11] was 111% and the viability, T/C [12] was 102%. For the same compound, the viability, T/C [13] was 99.3%, the viability, T/C [14] was 102% and the viability, T/C [15] was 90.5%. It also gave a viability, T/C [16] of 86.3%, a viability, T/C [17] of 97.5% and a viability, T/C [18] of 102%. For the same compound, the viability, T/C [19] was 77.2%, the viability, T/C [20] was 94.6% and the viability, T/C [21] was 92.4%. The viability, T/C [22] was 91.4%, the viability, T/C [23] was 94.7% and the viability, T/C [24] was 93.4%. It also gave a viability, T/C [25] of 109%, a viability, T/C [26] of 87.8% and a viability, T/C [27] of 97.4%. The viability, T/C [28] was 102%, the viability, T/C [29] was 100% and the viability, T/C [30] was 115%. For the same compound, the viability, T/C [31] was 104%, the viability, T/C [32] was 88% and the viability, T/C [33] was 92.6%. It also gave a viability, T/C [34] of 99.4%, a viability, T/C [35] of 86.7% and a viability, T/C [36] of 87.1%.

`O=C(Nc1ccc(O)c(NS(=O)(=O)c2ccc(F)cc2)c1)c1ccc(-c2ccccc2)cc1` + Nc1ccc(C#CCN(C(=O)Cc2ncc(C(F)(F)F)cc2C(F)(F)F)c2ccc(F)cc2)nn1 was tested, and the IC50 (second compound 0.0316 µM) was 9.16 µM, the IC50 (second compound 0.1 µM) was 8.49 µM and the IC50 (second compound 0.316 µM) was 8.65 µM. For the same compound, the IC50 (second compound 1 µM) was 9.34 µM, the IC50 (second compound 3.16 µM) was 8.68 µM and the IC50 (second compound 10 µM) was over 10 µM. For the same compound, the viability, T/C [1] was 104%, the viability, T/C [2] was 119% and the viability, T/C [3] was 97.4%. For the same compound, the viability, T/C [4] was 98.2%, the viability, T/C [5] was 97.3% and the viability, T/C [6] was 46.1%. For the same compound, the viability, T/C [7] was 102%, the viability, T/C [8] was 99.8% and the viability, T/C [9] was 91.4%. For the same compound, the viability, T/C [10] was 101%, the viability, T/C [11] was 95.6% and the viability, T/C [12] was 42.4%. It also gave a viability, T/C [13] of 108%, a viability, T/C [14] of 88.4% and a viability, T/C [15] of 107%. The viability, T/C [16] was 91.8%, the viability, T/C [17] was 85.9% and the viability, T/C [18] was 44.9%. It also gave a viability, T/C [19] of 108%, a viability, T/C [20] of 94.5% and a viability, T/C [21] of 95.7%. It also gave a viability, T/C [22] of 97.5%, a viability, T/C [23] of 87.3% and a viability, T/C [24] of 47.2%. It also gave a viability, T/C [25] of 106%, a viability, T/C [26] of 92.1% and a viability, T/C [27] of 92.7%. It also gave a viability, T/C [28] of 86.8%, a viability, T/C [29] of 79.9% and a viability, T/C [30] of 45.1%. The viability, T/C [31] was 83.2%, the viability, T/C [32] was 92.4% and the viability, T/C [33] was 88%. It also gave a viability, T/C [34] of 76%, a viability, T/C [35] of 74.7% and a viability, T/C [36] of 50.6%.
